Measurements: patent US20050118244A1, “Transmittal therapeutic systems containing steroid hormones and propylene glycol monocaprylate” (LTS Lohmann Therapie-System AG, priority 2001, published 2005)

Test: Flux of active ingredient from transdermal therapeutic system in modified Franz diffusion cell
Assay type: in vitro ADME, human
Details: for Cumulative amount of active ingredient after 3 days: human epidermis, 32° C.
Method: The measurements were carried out as follows: a modified Franz diffusion cell and, in each case, a transdermal therapeutic system with an effective diffusion area of 4.1 cm^2 was used. The test temperature was 32° C. The flux of active ingredient was measured on an epidermis from human skin. The acceptor used was an aqueous solution of 0.1% hydroxypropyl-β-cyclodextrin+0.1% NaN3; the acceptor volume was 9 ml (volume exchange after 32, 48, 56 and 72 hours).

Row | SMILES | Cumulative amount of active ingredient after 3 days (TTS formula: Progestogen (Org 30659) 5.0 % by weight, Durotak 2287 90.0 %, propylene glycol monocaprylate 5.0 %) | Cumulative amount of active ingredient after 3 days (TTS formula: Progestogen (Org 30659) 5.0 % by weight, Durotak 2287 95.0 %, no penetration promoter) | Cumulative amount of active ingredient after 3 days (TTS formula: Testosterone 2.0 % by weight, Durotak 2287 93.0 %, propylene glycol monocaprylate 5.0 %) | Cumulative amount of active ingredient after 3 days (TTS formula: Testosterone 2.0 % by weight, Durotak 2287 98.0 %, no penetration promoter) | Increase of the flux of active ingredient on use of 5% propylene glycol monocaprylate (TTS with 5% propylene glycol monocaprylate versus TTS without, Examples 1 and 2)
1 | C#C[C@]1(O)C=C[C@H]2[C@@H]3CCC4=CC(=O)CC[C@@H]4[C@H]3C(=C)C[C@@]21C [Progestogen (Org 30659), (17α)-17-hydroxy-11-methylene-19-norpregna-4,15-dien-20-yn-3-one] | 51.3 μg/cm^2 | 44.7 μg/cm^2 | – | – | –
2 | C[C@]12CC[C@H]3[C@@H](CCC4=CC(=O)CC[C@@]43C)[C@@H]1CC[C@@H]2O [Testosterone, testosterone] | – | – | 36.2 μg/cm^2 | 30.2 μg/cm^2 | about 20%
